Reference: patent publication US20260274892A1, “MACROCYCLIC BROAD SPECTRUM ANTIBIOTICS” (RQx Pharmaceuticals, Inc., priority 2017, published 2026)

Assays:
[1] = system: Methicillin Resistant Staphylococcus aureus strain USA 200; assay: Minimum inhibitory concentration (MIC), CLSI broth micro-dilution, S. aureus; format: cell-based; details: Staphylococcus aureus, MRSA / USA200, MRSA USA 200, cation adjusted Mueller Hinton Broth + 0.002% Tween-80, 35° C., 22 hours
Method in brief: (§1)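 Antibacterial potency is measured as MIC by the CLSI broth dilution method. Bacteria at OD600 0.0005 in Tween-80-supplemented cation-adjusted Mueller Hinton broth face ten twofold compound dilutions for 22 h at 35° C.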

[2] = system: Escherichia coli ATCC 25922; assay: Minimum inhibitory concentration (MIC), CLSI broth micro-dilution, E. coli; format: cell-based; details: Escherichia coli, ATCC25922, 22 h
Method in brief: as §1

[3] = Table 8, cation adjusted Mueller Hinton Broth + 0.002% Tween-80, 35° C.
[4] = Table 6, cation adjusted Mueller Hinton Broth + 0.002% Tween-80, 35° C.

For `CCCCCOc1ccc(-c2nc(C)c(C(=O)N[C@@H](CCN)C(=O)N(C)[C@@H]3C(=O)N[C@@H](C)C(=O)N[C@H](C(=O)O)Cc4ccc(OCCN)c(c4)-c4cc3ccc4O)c(C)n2)cc1` (racemic) [Compound 642, rac-(8S,11S,14S)-3-(2-aminoethoxy)-18-hydroxy-11-methyl-14-[methyl-[rac-(2S)-4-amino-2-[[4,6-dimethyl-2-(4-pentoxyphenyl)pyrimidine-5-carbonyl]amino]butanoyl]amino]-10,13-dioxo-9,12-diazatricyclo [13.3.1.12,6]icosa-1(18),2(20),3,5,15(19), 16-hexaene-8-carboxylic acid], the MIC ([1]; Table 8) was 0.21 µM and the MIC [2, 3] was 0.23 µM.

`Cc1nc(-c2ccc(OC(C)C)cc2)nc(C)c1C(=O)N[C@@H](CCN)C(=O)N(C)[C@@H]1C(=O)N[C@@H](C)C(=O)N[C@H](C(=O)O)Cc2ccc(O)c(c2)-c2cc1ccc2OCCN` (racemic) [Compound 643, rac-(8S,11S,14S)-18-(2-aminoethoxy)-3-hydroxy-11-methyl-14-[methyl-[rac-(2S)-4-amino-2-[[2-(4-isopropoxyphenyl)-4,6-dimethyl-pyrimidine-5-carbonyl]amino]butanoyl]amino]-10,13-dioxo-9,12-diazatricyclo [13.3.1.12,6]icosa-1(18),2(20),3,5,15(19), 16-hexaene-8-carboxylic acid] gave an MIC ([1]; Table 8) of 1.1 µM and an MIC [2, 3] of 2.3 µM.

Work on `Cc1cc(-c2ccc(C(C)(C)C)cc2)nc(C)c1C(=O)N[C@@H](CCN)C(=O)N(C)[C@@H]1C(=O)N[C@@H](C)C(=O)N[C@H](C(=O)O)Cc2ccc(O)c(c2)-c2cc1ccc2OCCN` (racemic) [Compound 644, rac-(8S,11S,14S)-18-(2-aminoethoxy)-3-hydroxy-11-methyl-14-[methyl-[rac-(2S)-4-amino-2-[[6-(4-tert-butylphenyl)-2,4-dimethyl-pyridine-3-carbonyl]amino]butanoyl]amino]-10,13-dioxo-9,12-diazatricyclo [13.3.1.12,6]icosa-1(18),2(20),3,5,15(19), 16-hexaene-8-carboxylic acid] yielded an MIC ([1]; Table 8) of 1.2 µM and an MIC [2, 3] of 0.58 µM.

For `Cc1nc(-c2ccc(C(C)(C)C)cc2)nc(C)c1C(=O)N[C@@H](CCN)C(=O)N(C)[C@@H]1C(=O)N[C@@H](C)C(=O)N[C@H](C(=O)O)Cc2ccc(OCCN)c(c2)-c2cc1ccc2OCCN` (racemic) [Compound 645, rac-(8S,11S,14S)-3,18-bis(2-aminoethoxy)-11-methyl-14-[methyl-[rac-(2S)-4-amino-2-[[2-(4-tert-butylphenyl)-4,6-dimethyl-pyrimidine-5-carbonyl]amino]butanoyl]amino]-10,13-dioxo-9,12-diazatricyclo [13.3.1.12,6]icosa-1(18),2(20),3,5,15(19), 16-hexaene-8-carboxylic acid], the MIC ([1]; Table 8) was 0.52 µM and the MIC [2, 3] was 0.4 µM.

`Cc1nc(-c2ccc(C(C)(C)C)cc2)nc(C)c1C(=O)N[C@@H](CCN)C(=O)N(C)[C@@H]1C(=O)N[C@@H](C)C(=O)N[C@H](C(=O)O)Cc2ccc(O)c(c2)-c2cc1ccc2OCCN` (racemic) [Compound 646, rac-(8S,11S,14S)-18-(2-aminoethoxy)-3-hydroxy-11-methyl-14-[methyl-[rac-(2S)-4-amino-2-[[2-(4-tert-butylphenyl)-4,6-dimethyl-pyrimidine-5-carbonyl]amino]butanoyl]amino]-10,13-dioxo-9,12-diazatricyclo [13.3.1.12,6]icosa-1(18),2(20),3,5,15(19), 16-hexaene-8-carboxylic acid] showed an MIC ([1]; Table 8) of 1.1 µM and an MIC [2, 3] of 0.37 µM.

`Cc1nc(-c2ccc3c(c2)CCC3(C)C)nc(C)c1C(=O)N[C@@H](CCN)C(=O)N(C)[C@@H]1C(=O)N[C@@H](C)C(=O)N[C@H](C(=O)O)Cc2ccc(OCCN)c(c2)-c2cc1ccc2OCCN` (racemic) [Compound 647, rac-(8S,11S,14S)-3,18-bis(2-aminoethoxy)-11-methyl-14-[methyl-[rac-(2S)-4-amino-2-[[2-(1,1-dimethylindan-5-yl)-4,6-dimethyl-pyrimidine-5-carbonyl]amino]butanoyl]amino]-10,13-dioxo-9,12-diazatricyclo [13.3.1.12,6]icosa-1(18),2(20),3,5,15(19), 16-hexaene-8-carboxylic acid] showed an MIC ([1]; Table 8) of 0.19 µM and an MIC [2, 3] of 0.25 µM.

`CCCCCOc1ccc(-c2nc(C)c(C(=O)N[C@@H](CCN)C(=O)N(C)[C@@H]3C(=O)N[C@@H](C)C(=O)N[C@H](C(=O)O)Cc4ccc(O)c(c4)-c4cc3ccc4OCCN)c(C)n2)cc1` (racemic) [Compound 648, rac-(8S,11S,14S)-18-(2-aminoethoxy)-3-hydroxy-11-methyl-14-[methyl-[rac-(2S)-4-amino-2-[[4,6-dimethyl-2-(4-pentoxyphenyl)pyrimidine-5-carbonyl]amino]butanoyl]amino]-10,13-dioxo-9,12-diazatricyclo [13.3.1.12,6]icosa-1(18),2(20),3,5,15(19), 16-hexaene-8-carboxylic acid] gave an MIC ([1]; Table 8) of 0.28 µM and an MIC [2, 3] of 0.1 µM.

`Cc1nc([C@H]2CC[C@H](C(C)(C)C)CC2)nc(C)c1C(=O)N[C@@H](CCN)C(=O)N(C)[C@@H]1C(=O)N[C@@H](C)C(=O)N[C@H](C(=O)NCC#N)Cc2ccc(OCCN)c(c2)-c2cc1ccc2OCCN` [Compound 296, rac-(8S,11S,14S)-3,18-bis(2-aminoethoxy)-N-(cyanomethyl)-11-methyl-14-[methyl-[rac-(2S)-4-amino-2-[[2-(4-tert-butylcyclohexyl)-4,6-dimethyl-pyrimidine-5-carbonyl]amino]butanoyl]amino]-10,13-dioxo-9,12-diazatricyclo[13.3.1.12,6]icosa-1(18),2(20),3,5,15(19),16-hexaene-8-carboxamide] gave an MIC ([1]; Table 6) of 0.016 µM and an MIC [2, 4] of 0.38 µM.

`Cc1nc([C@H]2CC[C@@H](C(C)(C)C)CC2)nc(C)c1C(=O)N[C@@H](CCN)C(=O)N(C)[C@@H]1C(=O)N[C@@H](C)C(=O)N[C@H](C(=O)NCC#N)Cc2ccc(OCCN)c(c2)-c2cc1ccc2OCCN` [Compound 297, rac-(8S,11S,14S)-3,18-bis(2-aminoethoxy)-N-(cyanomethyl)-11-methyl-14-[methyl-[rac-(2S)-4-amino-2-[[2-(4-tert-butylcyclohexyl)-4,6-dimethyl-pyrimidine-5-carbonyl]amino]butanoyl]amino]-10,13-dioxo-9,12-diazatricyclo[13.3.1.12,6]icosa-1(18),2(20),3,5,15(19),16-hexaene-8-carboxamide] was tested, and the MIC ([1]; Table 6) was 0.016 µM and the MIC [2, 4] was 0.75 µM.

`C[C@@H]1NC(=O)[C@@H](N(C)C(=O)[C@H](CCN)NC(=O)[C@H]2CC[C@H](c3ccc(C(C)(C)C)cc3)CC2)c2ccc(OCCN)c(c2)-c2cc(ccc2OCCN)C[C@@H](C(=O)NCC#N)NC1=O` [Compound 391, rac-(8S,11S,14S)-3,18-bis(2-aminoethoxy)-N-(cyanomethyl)-11-methyl-14-[methyl-[rac-(2S)-4-amino-2-[[4-(4-tert-butylphenyl)cyclohexanecarbonyl]amino]butanoyl]amino]-10,13-dioxo-9,12-diazatricyclo[13.3.1.12,6]icosa-1(18),2(20),3,5,15(19),16-hexaene-8-carboxamide] showed an MIC ([1]; Table 6) of 0.031 µM and an MIC [2, 4] of 0.25 µM.

`C[C@@H]1NC(=O)[C@@H](N(C)C(=O)[C@H](CCN)NC(=O)[C@H]2CC[C@@H](c3ccc(C(C)(C)C)cc3)CC2)c2ccc(OCCN)c(c2)-c2cc(ccc2OCCN)C[C@@H](C(=O)NCC#N)NC1=O` [Compound 392, rac-(8S,11S,14S)-3,18-bis(2-aminoethoxy)-N-(cyanomethyl)-11-methyl-14-[methyl-[rac-(2S)-4-amino-2-[[4-(4-tert-butylphenyl)cyclohexanecarbonyl]amino]butanoyl]amino]-10,13-dioxo-9,12-diazatricyclo[13.3.1.12,6]icosa-1(18),2(20),3,5,15(19),16-hexaene-8-carboxamide] showed an MIC ([1]; Table 6) of 0.063 µM and an MIC [2, 4] of 3 µM.

For `CCc1nc(-c2ccc(C(C)(C)C)cc2)nc(C)c1C(=O)N[C@@H](CCN)C(=O)N(C)[C@@H]1C(=O)N[C@@H](C)C(=O)N[C@H](C(=O)NCC#N)Cc2ccc(OCCN)c(c2)-c2cc1ccc2OCCN` [Compound 485], the MIC ([1]; Table 6) was 0.023 µM and the MIC [2, 4] was 0.5 µM.

Work on `CCCc1nc(-c2ccc(C(C)(C)C)cc2)nc(C)c1C(=O)N[C@@H](CCN)C(=O)N(C)[C@@H]1C(=O)N[C@@H](C)C(=O)N[C@H](C(=O)NCC#N)Cc2ccc(OCCN)c(c2)-c2cc1ccc2OCCN` [Compound 486] yielded an MIC ([1]; Table 6) of 0.023 µM and an MIC [2, 4] of 0.38 µM.

In the case of `Cc1nc(-c2ccc(C(C)(C)C)cc2)nc(C(C)C)c1C(=O)N[C@@H](CCN)C(=O)N(C)[C@@H]1C(=O)N[C@@H](C)C(=O)N[C@H](C(=O)NCC#N)Cc2ccc(OCCN)c(c2)-c2cc1ccc2OCCN` [Compound 487], the MIC ([1]; Table 6) is reported as 0.016 µM and the MIC [2, 4] is reported as 0.38 µM.

With `CNc1nc(-c2ccc(C(C)(C)C)cc2)ncc1C(=O)N[C@@H](CCN)C(=O)N(C)[C@@H]1C(=O)N[C@@H](C)C(=O)N[C@H](C(=O)NCC#N)Cc2ccc(OCCN)c(c2)-c2cc1ccc2OCCN` [Compound 489] the MIC ([1]; Table 6) was 0.016 µM and the MIC [2, 4] was 0.38 µM.

In the case of `C[C@@H]1NC(=O)[C@@H](N(C)C(=O)[C@H](CCN)NC(=O)c2cnc(-c3ccc(C(C)(C)C)cc3)nc2N(C)C)c2ccc(OCCN)c(c2)-c2cc(ccc2OCCN)C[C@@H](C(=O)NCC#N)NC1=O` [Compound 490], the MIC ([1]; Table 6) is reported as 0.023 µM and the MIC [2, 4] is reported as 1 µM.
